Test results taken from the supplement of paper PMC11061612.

How the values were obtained:
[1] = test system: LS-513 (Colorectal Carcinoma); assay: combination Emax (second highest fraction inhibited in the dose matrix, 72 h); higher = more inhibition; extreme values may be limits of the assay
Outline: (§1)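 Cell lines grown in DMEM/F12 or RPMI with 10% FBS were plated in 1536-well plates and held 24 hours at 37°C, 5% CO2 before 72 hours of exposure to two-drug dose matrices, with DMSO typically at 0.2%. CellTiter-Glo 2.0 luminescence gave viability, which was converted to inhibition. Vehicle wells were set to 0 and blank wells to 1. Combination Emax is the second-highest inhibition in the matrix, and Bliss excess is the observed combination effect minus the expected EA + EB − EA·EB, where EA and EB are the single-agent effects.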

[2] = test system: SW1088 (Low Grade Glioma); assay: as above
Outline: as §1

[3] = test system: NCI-H1299 (Non-Small Cell Lung Carcinoma); assay: as above
Outline: as §1

[4] = test system: SW1990 (Pancreatic Carcinoma); assay: as above
Outline: as §1

J82 (Bladder Carcinoma) [5] = assay: as above
Outline: as §1

[6] = test system: 697 (B-Lymphoblastic Leukemia); assay: as above
Outline: as §1

CAL-78 (Chondrosarcoma) = assay: as above
Outline: as §1

ES7 (Ewing's Sarcoma) = assay: as above
Outline: as §1

[7] = test system: NCI-H1793 (Lung Adenocarcinoma); assay: as above
Outline: as §1

[8] = test system: G-292-Clone-A141B1 (Osteosarcoma); assay: Bliss excess, mean over the matrix (fraction); higher = more synergy
Outline: as §1

[9] = test system: CTV-1 (T-Lymphoblastic Leukemia); assay: as above
Outline: as §1

[10] = test system: KARPAS-620 (Plasma Cell Myeloma); assay: as above
Outline: as §1

RH-1 (Ewing's Sarcoma) = assay: as above
Outline: as §1

[11] = test system: MFH-ino (Other Solid Carcinomas); assay: as above
Outline: as §1

[12] = test system: IHH-4 (Thyroid Gland Carcinoma); assay: as above
Outline: as §1

[13] = test system: NCI-H1299 (Non-Small Cell Lung Carcinoma); assay: as above
Outline: as §1

J82 (Bladder Carcinoma) [14] = assay: as above
Outline: as §1

[15] = test system: KATOIII (Gastric Carcinoma); assay: as above
Outline: as §1

[16] = test system: JiyoyeP-2003 (Burkitt's Lymphoma); assay: as above
Outline: as §1

[17] = test system: U-266 (Plasma Cell Myeloma); assay: as above
Outline: as §1
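Throughout, for Bliss excess, mean over the matrix: after 72 h of two-drug dosing.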

SMILES | combination Emax [1] | combination Emax [2] | combination Emax [3] | combination Emax [4] | combination Emax (J82 (Bladder Carcinoma) [5]) | combination Emax [6] | combination Emax (CAL-78 (Chondrosarcoma)) | combination Emax (ES7 (Ewing's Sarcoma)) | combination Emax [7] | Bliss excess [8] | Bliss excess [9] | Bliss excess [10] | Bliss excess (RH-1 (Ewing's Sarcoma)) | Bliss excess [11] | Bliss excess [12] | Bliss excess [13] | Bliss excess (J82 (Bladder Carcinoma) [14]) | Bliss excess [15] | Bliss excess [16] | Bliss excess [17]
CN(CCO)CC[C@H](CSc1ccccc1)Nc1ccc(S(=O)(=O)NC(=O)c2ccc(N3CCC([C@@H](O)c4ccccc4-c4ccc(Cl)cc4)CC3)cc2)cc1S(=O)(=O)C(F)(F)F [AZD4320] + Cc1cc2ncnn2cc1Nc1ncc2c(n1)n(C1CCOCC1)c(=O)n2C [AZD7648] (first compound max 1 µM, 7x7, partner max 10 µM) | 0.155 | 0.332 | 0.268 | 0.0867 | 0.0607 | 1 | 0.46 | 0.804 | 0.356 | -0.032 | 0.001 | 0.0178 | -0.0018 | -0.0545 | -0.0451 | -0.0408 | -0.0435 | -0.0343 | -0.0322 | -0.0005
NC1(C(=O)N[C@@H](CCO)c2ccc(Cl)cc2)CCN(c2ncnc3[nH]ccc23)CC1 [Capivasertib] + CCN(CCO)CCCOc1ccc2c(Nc3cc(CC(=O)Nc4cccc(F)c4)[nH]n3)ncnc2c1 [AZD2811] (first compound max 10 µM, 7x7, partner max 1 µM) | 0.532 | 0.642 | 0.364 | 0.136 | 0.482 | 1 | 0.512 | 0.86 | 0.289 | 0.0116 | 0.0423 | 0.0272 | 0.0222 | -0.0542 | 0.0289 | 0.0012 | -0.0018 | -0.0213 | -0.0303 | -0.105
CN(CCO)CC[C@H](CSc1ccccc1)Nc1ccc(S(=O)(=O)NC(=O)c2ccc(N3CCC([C@@H](O)c4ccccc4-c4ccc(Cl)cc4)CC3)cc2)cc1S(=O)(=O)C(F)(F)F [AZD4320] + CCN(CCO)CCCOc1ccc2c(Nc3cc(CC(=O)Nc4cccc(F)c4)[nH]n3)ncnc2c1 [AZD2811] (first compound max 1 µM, 7x7, partner max 1 µM) | 0.414 | 0.306 | 0.228 | 0.183 | 0.126 | 1 | 0.703 | 1 | 0.283 | 0.0019 | 0.0053 | 0.0899 | -0.0551 | -0.0406 | -0.0372 | -0.0237 | -0.0304 | -0.0434 | 0.057 | 0.113
COc1nnc2ccc(N3CCC(c4ccc(OCCN5CCN(C)C(=O)[C@H]5C)cc4)CC3)nn12 [AZD5153] + C=CCn1c(=O)c2cnc(Nc3ccc(N4CCN(C)CC4)cc3)nc2n1-c1cccc(C(C)(C)O)n1 [AZD1775] (first compound max 1 µM, partner max 1 µM) | 0.728 | 0.513 | 0.777 | 0.24 | 0.486 | 1 | 0.551 | 0.795 | 0.358 | -0.0475 | 0.0151 | -0.0559 | -0.0406 | -0.0837 | -0.0294 | -0.0278 | 0.0514 | -0.148 | -0.0401 | -0.0922
CN(CCO)CC[C@H](CSc1ccccc1)Nc1ccc(S(=O)(=O)NC(=O)c2ccc(N3CCC([C@@H](O)c4ccccc4-c4ccc(Cl)cc4)CC3)cc2)cc1S(=O)(=O)C(F)(F)F [AZD4320] + C[C@@H](Nc1cc(F)cc(F)c1)c1cc(C(=O)N(C)C)cc2c(=O)cc(N3CCOCC3)oc12 [AZD8186] (first compound max 1 µM, 7x7, partner max 3 µM) | 0.708 | 0.515 | 0.297 | 0.388 | 0.282 | 1 | 0.7 | 0.991 | 0.342 | -0.0014 | 0.0326 | 0.0147 | 0.0588 | -0.0163 | 0.0438 | 0.0118 | -0.0061 | -0.0856 | 0.0195 | -0.0077
CC(=O)Nc1cccc(-n2c(=O)n(C3CC3)c(=O)c3c(Nc4ccc(I)cc4F)n(C)c(=O)c(C)c32)c1 [Trametinib] + Cc1nc(-c2cn3c(n2)-c2ccc(-c4cnn(C(C)(C)C(N)=O)c4)cc2OCC3)n(C(C)C)n1 [Taselisib] (first compound max 1 µM, 7x7, partner max 10 µM) | 1 | 0.696 | 0.68 | 0.971 | 0.593 | 0.653 | 0.512 | 0.673 | 0.778 | 0.0804 | 0.328 | 0.24 | 0.0194 | 0.148 | -0.0242 | 0.121 | 0.0623 | 0.0938 | 0.108 | 0.181
COc1cccc(OCCCN)c1-c1cc(Nc2cnc(C#N)cn2)n[nH]1 [Prexasertib] + CN(C)CCCOc1ccc(-c2ccc3ncc4c(c3c2)n(C2CCOCC2)c(=O)n4C)cn1 [AZD0156] (first compound max 1 µM, 7x7, partner max 1 µM) | 0.824 | 0.797 | 0.747 | 0.705 | 0.407 | 1 | 0.525 | 0.838 | 0.468 | -0.0849 | -0.0108 | 0.0277 | 0.0241 | 0.0142 | 0.0504 | -0.0332 | 0.0036 | -0.0053 | -0.0003 | -0.032
C[C@@H]1COCCN1c1cc(C2([S@](C)(=N)=O)CC2)nc(-c2ccnc3[nH]ccc23)n1 [AZD6738] + O=C(c1cc(Cc2n[nH]c(=O)c3ccccc23)ccc1F)N1CCN(C(=O)C2CC2)CC1 [Olaparib] (first compound max 10 µM, 7x7, partner max 10 µM) | 0.722 | 0.501 | 0.666 | 0.471 | 0.344 | 1 | 0.616 | 0.962 | 0.379 | 0.0195 | 0.043 | -0.0168 | 0.0873 | 0.0189 | 0.0506 | -0.0365 | 0.031 | -0.0286 | 0.0005 | 0.0151
COc1cccc(OCCCN)c1-c1cc(Nc2cnc(C#N)cn2)n[nH]1 [Prexasertib] + C=CCn1c(=O)c2cnc(Nc3ccc(N4CCN(C)CC4)cc3)nc2n1-c1cccc(C(C)(C)O)n1 [AZD1775] (first compound max 1 µM, partner max 1 µM) | 0.949 | 0.848 | 0.799 | 0.688 | 0.577 | 1 | 0.643 | 0.966 | 0.532 | 0.028 | 0.0364 | 0.0927 | 0.0653 | 0.039 | 0.136 | -0.0148 | 0.096 | -0.0076 | 0.0839 | -0.0454
Cc1nc(Nc2ncc(C(=O)Nc3c(C)cccc3Cl)s2)cc(N2CCN(CCO)CC2)n1 [Dasatinib] + CC(=O)Nc1cccc(-n2c(=O)n(C3CC3)c(=O)c3c(Nc4ccc(I)cc4F)n(C)c(=O)c(C)c32)c1 [Trametinib] (first compound max 2 µM, 7x7, partner max 1 µM) | 0.998 | 0.666 | 0.795 | 0.399 | 0.276 | 0.708 | 0.474 | 0.294 | 0.567 | – | 0.0181 | 0.0632 | -0.0353 | -0.0838 | 0.112 | 0.035 | -0.0068 | -0.0164 | 0.193 | 0.0609
C=CCn1c(=O)c2cnc(Nc3ccc(N4CCN(C)CC4)cc3)nc2n1-c1cccc(C(C)(C)O)n1 [AZD1775] + C1CN(CCC1(C(=O)N[C@@H](CCO)C2=CC=C(C=C2)Cl)N)C3=NC=NC4=C3C=CN4 [Capivasertib] (first compound max 3 µM, partner max 3 µM) | 0.81 | 0.723 | 0.793 | 0.584 | 0.468 | 1 | 0.733 | 0.808 | 0.428 | -0.0313 | 0.0399 | – | -0.0509 | -0.0204 | -0.005 | -0.0756 | -0.0184 | -0.0773 | -0.0726 | -0.0704
C=CCn1c(=O)c2cnc(Nc3ccc(N4CCN(C)CC4)cc3)nc2n1-c1cccc(C(C)(C)O)n1 [AZD1775] + O=C(c1cc(Cc2n[nH]c(=O)c3ccccc23)ccc1F)N1CCN(C(=O)C2CC2)CC1 [Olaparib] (first compound max 1 µM, partner max 10 µM) | 0.827 | 0.59 | 0.792 | 0.404 | 0.195 | 1 | 0.446 | – | 0.379 | 0.0161 | -0.0239 | -0.0324 | 0.044 | -0.0128 | 0.0194 | -0.0048 | -0.025 | -0.0227 | -0.0086 | -0.0775
